Where two headings read alike, the source gives them in different places.
Legend:
[1] = target: T1, KRAS(G12C) and SOS1 binding (Homo sapiens, UniProt Q07889); test: KRAS (G12C) and SOS1 binding assay (HTRF); details: 25° C., 60 minutes, read-out: IC50, inhibitory activity on KRAS(G12C) and SOS1 binding
T1 sequence (Q07889 564-1049): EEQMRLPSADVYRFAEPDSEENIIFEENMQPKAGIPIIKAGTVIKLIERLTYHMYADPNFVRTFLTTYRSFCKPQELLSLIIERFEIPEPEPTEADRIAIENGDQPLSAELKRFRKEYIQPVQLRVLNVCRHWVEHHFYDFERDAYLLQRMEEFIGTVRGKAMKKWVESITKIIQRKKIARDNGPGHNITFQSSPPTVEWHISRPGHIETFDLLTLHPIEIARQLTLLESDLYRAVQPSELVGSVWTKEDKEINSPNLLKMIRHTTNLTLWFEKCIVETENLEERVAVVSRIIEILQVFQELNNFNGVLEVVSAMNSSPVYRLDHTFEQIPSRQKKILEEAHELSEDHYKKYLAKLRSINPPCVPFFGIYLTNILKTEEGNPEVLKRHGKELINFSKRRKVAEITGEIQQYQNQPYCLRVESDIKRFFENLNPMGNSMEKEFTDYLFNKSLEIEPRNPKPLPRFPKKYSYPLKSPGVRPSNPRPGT
Experimental: (§1) 1. Experimental Materials:
Multifunctional microplate reader Nivo5 was purchased from PerkinElmer.
2. Preparation of 1× Buffer:
The buffer for this experiment was the current preparation.
Preparation method: 4-Hydroxyethylpiperazineethanesulfonic acid (Hepes): 5 mM; sodium chloride (NaCl): 150 mM; ethylenediaminetetraacetic acid (EDTA): 10 mM; CO-630 (Igepal): 0.0025%; potassium fluoride (KF): 100 mM; dithiothreitol (DTT): 1 mM; bovine serum albumin (BSA): 0.05%.
• 1) The compounds to be tested were diluted 5-fold with DMSO to the eighth concentration using a row gun, that is, from 1 mM to 0.064 μM. • 2) Each gradient of the compounds to be tested were diluted with 1× buffer into a working solution of 2% DMSO, 5 μL/well was added to the corresponding well, corresponding to a concentration gradient of 20 μM to […], and a double-duplication experiment was set up. The working solution was centrifuged at 1000 rpm for 1 minute. • 3) A mixed working solution of KRAS (G12C) (200 nM) and Mab Anti GST-Eu cryptate (1 ng/μL) was prepared with 1× buffer, then the mixed working solution was incubated at 25° C. for 5 minutes, and 2.5 μL/well was added to the corresponding well. • 4) A mixed working solution of SOS1 (80 nM) and Mab Anti 6HIS-XL665 ([…]) was prepared with 1× buffer, 2.5 μL/well was added to the corresponding well; 2.5 μL of Mab Anti 6HIS-XL665 ([…]) diluent was added to the blank well (Blank), at this time the final concentration gradient of the compounds was 10 μM diluted to 0.64 nM, KRAS (G12C) ([…]), MAb Anti GST-Eu cryptate (0.25 ng/μL), SOS1 (20 nM), Mab Anti 6HIS-XL665 (2 g/μL), and the reaction system was placed at 25° C. for 60 minutes. A multi-label analyzer was used for reading HTRF after the reaction was completed. 4. Data Analysis:
Using the equation (Sample−Min)/(Max−Min)×100% to convert the raw data into inhibition rate, and the value of IC50 might be obtained by curve fitting with four parameters (obtained by “Log(inhibitor) vs. response-Variable slope” mode in GraphPad Prism). Table 1 provides the inhibitory activity of the compounds of the present disclosure on KRAS(G12C) and SOS1 binding.

[2] = test system: A427 cells; test: In vitro anti-proliferation assay of A427 cells (KRAS G12D); assay type: cell-based; details: Homo sapiens, A-427, 336 h; A427 cells in agarose gel, 14 days, Almar blue; read-out: IC50, inhibitory activity on the proliferation of A427 cells
Description: as §1
EMEM culture medium, fetal bovine serum, penicillin/streptomycin antibiotics were purchased from Wisent, and low melting point agarose was purchased from Sigma. Almar blue reagent was purchased from Invitrogen. A427 cell line was purchased from Nanjing Cobioer Biotechnology Co., Ltd. Envision multi-label analyzer (PerkinElmer).
• 1) A427 cells were planted in a 96-well U-shaped plate, and the low melting point agarose was first prepared into a 2% mother solution. When used, the agarose mother solution was first heated in a microwave oven to completely melt, and then placed in a 42° C. water bath to keep the agarose in a liquid state. The gel was added to a serum-containing medium to prepare a gel concentration of 0.6% as the base gel, and spread into a 96-well U-shaped plate at 50 μL per well. After the base gel was solidified, 2% gel was added to a cell-containing medium to prepare a gel concentration of 0.4% of cell-containing top gel with a cell density of 4×10^4 cells/mL, which was added to a 96-well U-shaped plate spread with base gel at 75 μL per well with a cell density of 3000 cells per well. After the top gel was solidified, the cell plate was incubated overnight in a CO2 incubator. • 2) On the day of adding the compounds, 85 μL of liquid medium was added to the 96-well U-shaped plate in which the cells were spread. The compounds to be tested were diluted 3-fold with a row gun to the ninth concentration, that is, from 6 mM to 0.9 μM, and a double-duplication experiment was set up. 97 μL of culture medium was added to a middle plate, and then 2.5 μL of gradient diluted compound per well was transferred to the middle plate according to the corresponding position. After being thoroughly mixed, 40 μL per well was transferred to the cell plate. The concentration range of the compound transferred to the cell plate was 30 μM to 4.5 nM. […] A multi-label analyzer was used for reading. […]

[3] = Pharmacokinetic study in mice; assay type: in vivo; details: mouse, plasma; for AUC(0-t): read-out: AUC0-24 h
Experimental: The purpose of this experiment is to evaluate the pharmacokinetic behavior of the compounds after a single intravenous injection or intragastric administration in mice. For intravenous injection, the compound was prepared as a clear solution of 0.2 mg/mL, vehicle: 5% DMSO/95% (10% hydroxypropyl-β-cyclodextrin) aqueous solution; for intragastric administration, the compound was prepared as a suspension of 0.3 mg/mL, vehicle: 5% DMSO/95% (10% hydroxypropyl-β-cyclodextrin) aqueous solution.
The concentrations of compounds in plasma were determined by high performance liquid chromatography-tandem mass spectrometry (LC-MS/MS). Retention time of compounds and internal standard (diclofenac), chromatogram acquisition and integration of chromatogram were processed using the software Analyst (Applied Biosystems), and statistics of the data were processed using the software Watson LIMS (Thermo Fisher Scientific) or Analyst (Applied Biosystems). The concentration of analytes in the sample was expressed in ng/mL, with 3 valid digits retained. All values expressed as percentages (for example, % deviation and % coefficient of variation, etc.) were retained to one decimal point. Each calibration curve contained at least 6 concentration levels. The calibration specimen should be prepared using a stock solution from a different source than the quality control sample. The deviation between the calculated concentration of the calibration specimen and the indicated value exceeds ±15.0% (the lower limit of quantification exceeds ±20.0%) and the specimen should be rejected in the regression analysis. The rejected calibration specimens should be less than 25% and each calibration curve should contain at least 6 calibration specimens that meet the acceptance criteria. If the lower and upper limits of quantification calibration specimens need to be rejected, the upper and lower limits of quantification for the analytical batch will be raised and lowered accordingly.
Plasma concentrations were processed using the non-compartmental model of WinNonlin™ Version 6.3 (Pharsight, Mountain View, CA) pharmacokinetic software, and pharmacokinetic parameters were calculated using the linear-log trapezoidal method. The pharmacokinetic parameters to be calculated include but are not limited to (data permitting) T1/2, Vdss, CL, AUC0-24 h of IV group; Cmax, Tmax, AUC0-24 h, oral bioavailability (F %) of PO group.
The relevant pharmacokinetic parameters of the embodiment of the present disclosure in mice intravenously injected at a dose of 1 mg/Kg and intragastrically administered at a dose of 3 mg/Kg are shown in Table 5 below.

[4] = po, intragastric administration, 3 mg/Kg

SMILES | IC50 [1] [nM] | IC50 [2] [nM] | further results
C=CC(Nc1nc(C)nc2cc(=O)n(C3CCOCC3)cc12)c1cc(N)cc(C(F)(F)F)c1 (stereo not shown) [Compound 1] | 32 | – | –
C=CC(Nc1nc(C)nc2cc(=O)n(C3(C)CCOC3)cc12)c1cc(N)cc(C(F)(F)F)c1 (stereo not shown) [Compound 2] | 26 | – | –
C=CC(Nc1nc(C)nc2cc(=O)n(C3(CF)CC3)cc12)c1cc(N)cc(C(F)(F)F)c1 (stereo not shown) [Compound 3] | 25 | – | –
C=CC(Nc1nc(C)nc2cc(=O)n(C34CCC(O)(CC3)CC4)cc12)c1cc(N)cc(C(F)(F)F)c1 (stereo not shown) [Compound 4] | 21 | – | –
C=C[C@@H](Nc1nc(C)nc2cc(=O)n(C3(C(F)F)CC3)cc12)c1cc(C(F)(F)CO)cs1 [Compound 7] | 13 | – | –
C=C[C@@H](Nc1nc(C)nc2cc(=O)n(C3(C(F)F)CC3)cc12)c1cccc(C(F)F)c1F [Compound 8] | – | ≤ 100 | clearance ([3]; intravenous injection, 1 mg/Kg): 30.5 mL/min/kg; half-life ([3]; intravenous injection, 1 mg/Kg): 40.2 min; AUC(0-t) ([3]; intravenous injection, 1 mg/Kg): 1.77 µM·h; Vd ([3]; intravenous injection, 1 mg/Kg, read-out: Vdss): 1.84 L/kg; bioavailability ([3]; oral, intragastric 3 mg/Kg vs intravenous 1 mg/Kg, read-out: F % (oral bioavailability)): 109%; Cmax [3, 4]: 1380 nM; Tmax [3, 4]: 60 min; AUC(0-t) [3, 4]: 4.11 µM·h
C=C[C@@H](Nc1nc(C)nc2cc(=O)n(C3(C)CCN(C(C)=O)C3)cc12)c1cccc(C(F)F)c1F (stereo partly shown) [Compound 13] | – | ≤ 100 | –
C=C[C@@H](Nc1nc(C)nc2cc(=O)n(C3(C(F)F)CCN(C(C)=O)C3)cc12)c1cccc(C(F)F)c1F (stereo partly shown) [Compound 15] | – | ≤ 100 | –

Reference: patent US12552787B2, “Quinazoline compound” (MEDSHINE DISCOVERY INC., priority 2020, dated 2026)
